Assay results reported in patent publication US20240197938A1, “ANTIMICROBIAL COMPOUNDS BASED ON GLUCOHEPTONIC ACIDS AND THEIR SALTS” (HARCROS CHEMICALS, INC., priority 2021, published 2024).

What was measured:
[1] = Conductivity testing (calculated CMC); assay type: physicochemical; conditions: for Calculated CMC, All Points: all data points; for Calculated CMC, Average: average of outer, inner, all points; for Calculated CMC, Inner Points: inner data points; for Calculated CMC, Outer Points: outer data points
Experimental: Conductivities were measured using a VWR 23609-216 Pure H2O Tester conductivity meter. The meter probe was submerged into the test solution and swirled gently. Once the meter settled, the value was recorded.
The conductivity of the solutions of Example 7 were tested at dilutions ranging from 0.1 M to 0.001 M. The data was plotted on a logarithmic scale and analyzed in the style of Heard and Ashworth. For each sample, three graphs were reported and fitted with a trend curve: outer data points, inner data points, all data points. […] An average CMC value was determined from the three trend samples (outer data points, inner data points, all data points) in order to more accuracy predict the CMC value.
LINEST was utilized to determine the slope and intercept for each line, and a combination of INTERCEPT and SLOPE was used to determine the intersection of the two fitted lines. The Critical Micelle Concentration (CMC) was determined for each of these plots by the intercept of the two lines. Set forth below in Table 5 is the calculated CMC for each graph and the average CMC.

[2] = Bubble pressure tensiometry (dynamic surface tension, calculated CMC); assay type: physicochemical; conditions: for Calculated CMC: bubble tensiometry
Experimental: Dynamic surface tensions of certain formulations were measured using a KRÜSS BP100 BPT Mobile bubble pressure tensiometer. Samples of the solution of Example 7 were tested by adding the test solution to a glass dish and lowering the disposable capillary tip and temperature probe into the solution. The dynamic setting was selected, and the instrument was set to collect 30 data points, the bubble age increasing from about 10 ms to about 30,000 ms.
Bubble tensiometry was used to calculate the Critical Micelle Concentration (CMC) value for each of the solutions.
FIG. 1 presents a comparison of the bubble age to surface tension for RM14A at CMC, sub-CMC, and super-CMC concentrations. FIG. 2 presents a comparison of the bubble age to surface tension for RM14B at CMC, sub-CMC, and super-CMC concentrations. FIG. 3 presents a comparison of the bubble age to surface tension for RM14C at CMC, sub-CMC, and super-CMC concentrations. FIG. 4 presents a comparison of the bubble age to surface tension for RM12A, RM13A, RM14A, and RM15A at super-CMC concentrations. FIG. 5 presents a comparison of the bubble age to surface tension for RM12A, RM13A, RM14A, and RM15A at CMC concentrations. FIG. 6 presents a comparison of the bubble age to surface tension for RM12A, RM13A, RM14A, and RM15A at CMC concentrations. FIG. 7 presents a comparison of bubble age to surface tension for RM12A, RM13A, RM14A, and RM15A at sub-CMC concentrations.

[3] = test system: all microbes (Candida albicans, Staphylococcus aureus, Staphylococcus epidermidis, Escherichia coli, Salmonella abony, Listeria monocytogenes); assay: ASTM E2315-16 Time-Kill Procedure, average across all microbes; assay type: cell-based; conditions: for Log Reduction, Average, all microbes: 30 seconds; for average Log Reduction (LR) in microbial population across all microbes: 10 minutes
Experimental: Select compounds were tested for antimicrobial activity using ASTM method […]-16 (Standard Guide for Assessment of Antimicrobial Activity using a Time-Kill Procedure). Six microbes were tested: Candida albicans, Staphylococcus aureus, Staphylococcus epidermidis. Escherichia coli, Salmonella abony, and Listeria monocytogenes. Four chlorhexidine salts were tested: chlorhexidine di-α-glucoheptonate (Sample G), chlorhexidine di-β73-glucoheptonate (Sample H), chlorhexidine digluconate (Sample I), and chlorhexidine diacetate (Sample P). Both chlorhexidine diglucoheptonate salts were prepared at a 2:1 molar ratio of glucoheptonic acid to chlorhexidine. Dilutions of each salt were prepared using sterile water (20-30 ppm hardness), to achieve the desired wt. % concentration. Samples G, H, I, and P were also tested at a concentration of 0.60 wt % active and evaluated for the average Log Reduction in microbial population at 10 minutes, across all microbes. A further test was conducted at a concentration of 1.0 wt % active and evaluated for the average Log Reduction in microbial population at 10 minutes, across all microbes. Benzalkonium salts were also tested using the same procedure as set forth in Example 13. The samples were benzalkonium chloride (C12-C16) (Sample C), benzalkonium chloride (C12-C14) (Sample D), benzalkonium chloride in combination with a stoichiometric amount of α-glucoheptonate (Sample F), and benzalkonium chloride in combination with a molar excess of α-glucoheptonate (Sample N). Sample F was prepared by mixing and extensively heating a stoichiometric quantity (1:1) of sodium α-glucoheptonate with benzalkonium chloride, typified by the C12-14 alkyl chain. Sample N was prepared by simply blending benzalkonium chloride, typified by the C12-16 chain, with a molar excess of sodium α-glucoheptonate (1.6:1). Both Samples F and N contain sodium chloride. A further antimicrobial test was conducted to determine the log reduction at 10 minutes. Samples C, D, F, and N are as defined above.

[4] = test system: Staphylococcus epidermidis; assay: ASTM E2315-16 Time-Kill Procedure; assay type: cell-based; conditions: 30 seconds
Experimental: (§1) Select compounds were tested for antimicrobial activity using ASTM method […]-16 (Standard Guide for Assessment of Antimicrobial Activity using a Time-Kill Procedure). Six microbes were tested: Candida albicans, Staphylococcus aureus, Staphylococcus epidermidis. Escherichia coli, Salmonella abony, and Listeria monocytogenes. Four chlorhexidine salts were tested: chlorhexidine di-α-glucoheptonate (Sample G), chlorhexidine di-β73-glucoheptonate (Sample H), chlorhexidine digluconate (Sample I), and chlorhexidine diacetate (Sample P). Both chlorhexidine diglucoheptonate salts were prepared at a 2:1 molar ratio of glucoheptonic acid to chlorhexidine. Dilutions of each salt were prepared using sterile water (20-30 ppm hardness), to achieve the desired wt. % concentration. Two glucoheptonic acids were evaluated for antimicrobial activity against the same six microbes as Example 13. Sample L was α-glucoheptonic acid. Sample M was β73-glucoheptonic acid. Benzalkonium salts were also tested using the same procedure as set forth in Example 13. The samples were benzalkonium chloride (C12-C16) (Sample C), benzalkonium chloride (C12-C14) (Sample D), benzalkonium chloride in combination with a stoichiometric amount of α-glucoheptonate (Sample F), and benzalkonium chloride in combination with a molar excess of α-glucoheptonate (Sample N). Sample F was prepared by mixing and extensively heating a stoichiometric quantity (1:1) of sodium α-glucoheptonate with benzalkonium chloride, typified by the C12-14 alkyl chain. Sample N was prepared by simply blending benzalkonium chloride, typified by the C12-16 chain, with a molar excess of sodium α-glucoheptonate (1.6:1). Both Samples F and N contain sodium chloride.

[5] = test system: Candida albicans; assay: ASTM E2315-16 Time-Kill Procedure; assay type: cell-based; conditions: 30 seconds
Experimental: as §1

[6] = test system: Staphylococcus aureus; assay: ASTM E2315-16 Time-Kill Procedure; assay type: cell-based; conditions: 30 seconds
Experimental: as §1

[7] = test system: Escherichia coli; assay: ASTM E2315-16 Time-Kill Procedure; assay type: cell-based; conditions: 30 seconds
Experimental: as §1, with “concentration.” for “concentration. Two glucoheptonic acids were evaluated for antimicrobial activity against the same six microbes as Example 13. Sample L was α-glucoheptonic acid. Sample M was β73-glucoheptonic acid.”

[8] = test system: Listeria monocytogenes; assay: ASTM E2315-16 Time-Kill Procedure; assay type: cell-based; conditions: 30 seconds
Experimental: as §1, with “concentration.” for “concentration. Two glucoheptonic acids were evaluated for antimicrobial activity against the same six microbes as Example 13. Sample L was α-glucoheptonic acid. Sample M was β73-glucoheptonic acid.”

[9] = test system: Salmonella abony; assay: ASTM E2315-16 Time-Kill Procedure; assay type: cell-based; conditions: 30 seconds
Experimental: as §1, with “concentration.” for “concentration. Two glucoheptonic acids were evaluated for antimicrobial activity against the same six microbes as Example 13. Sample L was α-glucoheptonic acid. Sample M was β73-glucoheptonic acid.”

N=C(NCCCCCCNC(=N)NC(=N)Nc1ccc(Cl)cc1)NC(=N)Nc1ccc(Cl)cc1.O=C(O)C(O)C(O)C(O)C(O)C(O)CO.O=C(O)C(O)C(O)C(O)C(O)C(O)CO [RM13C, Chlorhexidine di-α-glucoheptonate]
Calculated CMC, All Points [1]: 0.0130 M
Calculated CMC, Average [1]: 0.0126 M
Calculated CMC, Inner Points [1]: 0.0134 M
Calculated CMC, Outer Points [1]: 0.0113 M
Calculated CMC [2]: 0.0198 M

N=C(NCCCCCCNC(=N)NC(=N)Nc1ccc(Cl)cc1)NC(=N)Nc1ccc(Cl)cc1.O=C(O)C(O)C(O)C(O)C(O)C(O)CO.O=C(O)C(O)C(O)C(O)C(O)C(O)CO [RM14A, Chlorhexidine di-β73-glucoheptonate]
Calculated CMC, All Points [1]: 0.0130 M
Calculated CMC, Average [1]: 0.0126 M
Calculated CMC, Inner Points [1]: 0.0135 M
Calculated CMC, Outer Points [1]: 0.0113 M
Calculated CMC [2]: 0.0168 M

N=C(NCCCCCCNC(=N)NC(=N)Nc1ccc(Cl)cc1)NC(=N)Nc1ccc(Cl)cc1.O=C(O)C(O)C(O)C(O)C(O)C(O)CO.O=C(O)C(O)C(O)C(O)C(O)C(O)CO [RM14B, Chlorhexidine di-β73-glucoheptonate]
Calculated CMC, All Points [1]: 0.0132 M
Calculated CMC, Average [1]: 0.0132 M
Calculated CMC, Inner Points [1]: 0.0152 M
Calculated CMC, Outer Points [1]: 0.0113 M
Calculated CMC [2]: 0.0167 M

N=C(NCCCCCCNC(=N)NC(=N)Nc1ccc(Cl)cc1)NC(=N)Nc1ccc(Cl)cc1.O=C(O)C(O)C(O)C(O)C(O)C(O)CO.O=C(O)C(O)C(O)C(O)C(O)C(O)CO [RM14C, Chlorhexidine di-β73-glucoheptonate]
Calculated CMC, All Points [1]: 0.0131 M
Calculated CMC, Average [1]: 0.0133 M
Calculated CMC, Inner Points [1]: 0.0156 M
Calculated CMC, Outer Points [1]: 0.0111 M
Calculated CMC [2]: 0.0166 M

N=C(NCCCCCCNC(=N)NC(=N)Nc1ccc(Cl)cc1)NC(=N)Nc1ccc(Cl)cc1.O=C(O)C(O)C(O)C(O)C(O)C(O)CO.O=C(O)C(O)C(O)C(O)C(O)C(O)CO [RM15A, Chlorhexidine di-β81-glucoheptonate]
Calculated CMC, All Points [1]: 0.0133 M
Calculated CMC, Average [1]: 0.0133 M
Calculated CMC, Inner Points [1]: 0.0154 M
Calculated CMC, Outer Points [1]: 0.0113 M
Calculated CMC [2]: 0.0173 M

N=C(NCCCCCCNC(=N)NC(=N)Nc1ccc(Cl)cc1)NC(=N)Nc1ccc(Cl)cc1.O=C(O)C(O)C(O)C(O)C(O)C(O)CO.O=C(O)C(O)C(O)C(O)C(O)C(O)CO [Sample H, chlorhexidine di-β73-glucoheptonate]
Log Reduction, Average, all microbes ([3]; 0.20% (wt. %)): 2.27
Log Reduction, Average, all microbes ([3]; 0.60% (wt. %)): 3.59
Log Reduction, Average, all microbes ([3]; 1.00% (wt. %)): 4.18
average Log Reduction (LR) in microbial population across all microbes ([3]; 0.60 wt % active): 5.25
average Log Reduction (LR) in microbial population across all microbes ([3]; 1.0 wt % active): 5.51
performance in the Time-Kill Test ([3]; at lower concentrations): better performance than the di-α-glucoheptonate salt
Log Reduction ([4]; 0.20% (wt. %)): 1.47
Log Reduction ([4]; 0.60% (wt. %)): 2.65
Log Reduction ([4]; 1.00% (wt. %)): 3.75
Log Reduction ([5]; 0.20% (wt. %)): 4.26
Log Reduction ([5]; 0.60% (wt. %)): 4.56
Log Reduction ([5]; 1.00% (wt. %)): 4.51
Log Reduction ([6]; 0.20% (wt. %)): 0.76
Log Reduction ([6]; 0.60% (wt. %)): 3.19
Log Reduction ([6]; 1.00% (wt. %)): 4.33
Log Reduction ([7]; 0.20% (wt. %)): 2.39
Log Reduction ([7]; 0.60% (wt. %)): 2.87
Log Reduction ([7]; 1.00% (wt. %)): 3.77
Log Reduction ([8]; 0.20% (wt. %)): 1.57
Log Reduction ([8]; 0.60% (wt. %)): 4.99
Log Reduction ([8]; 1.00% (wt. %)): 5.27
Log Reduction ([9]; 0.20% (wt. %)): 3.14
Log Reduction ([9]; 0.60% (wt. %)): 3.26
Log Reduction ([9]; 1.00% (wt. %)): 3.44
surface tension versus bubble age (rate and magnitude of reduction) ([2]; sub-CMC, CMC and super-CMC concentrations, FIGS. 1-7): fall more rapidly and to a lower value than either the di-α-glucoheptonate or the comparative digluconate salt
